Data from patent US20080261891A1, “COMPOSITIONS AND METHODS FOR USING SYRINGOPEPTIN 25A AND RHAMNOLIPIDS” (Utah State University, priority 2007, published 2008).
Where a SMILES comes first, the peptide text is derived from it. Bridges are numbered along the chain shown (N, C = ends). [ ]: non-standard residue; d: D form. The star is where a group is joined. ξ: configuration not given here. Decanoyl(3ξ-OH) = CCCCCCCC(O)CC(=O)*; Dab = NCC[CH](N)C(=O)O; Dhb = C/C=C(\N)C(=O)O

Columns and labels:
Enterococcus faecalis = type: cell-based; conditions: Enterococcus faecalis (multiple drug resistant); 48 h
Procedure: (§1) In order to determine the antimicrobial efficacy of RLs and SPs they were tested against several bacterial strains, some with multiple drug resistance. The multiple drug resistant bacterial strains used were E. faecalis and S. aureus. […] A combination of RLs and SPs were tested against L. monocytogenes.
(§2) The MIC of the compounds for the organisms was determined by the microbroth dilution method, described hereafter. The microorganisms were prepared as described above and resuspended in their optimal growth media (Table 1) to ˜10^5 CFU/mL containing SP 25A at 2, 3, 4, 5, 6, 7, 8, 16, 32 and 50 μg/mL in a total volume of 550 μL. RL concentrations of 2, 3, 4, 5, 6, 7, 8, 16, 32 and 60 μg/mL in a total volume of 550 μL were tested in a 48-well plate (Corning, N.Y.). The plates were incubated at optimal growth conditions for the respective organism and monitored for an increase in OD600 after 48 h by a Perkin-Elmer (HTS 7000) plate reader (Downers Grove, Ill.). […] Negative controls (no inhibition of growth) were included using saline in the assay for each compound. The lowest concentration at which there was no increase in OD over 48 h was reported as the MIC. Each MIC was determined in replicate with three separate tests per replication. The results of the three tests were averaged for each replicate.

[1] = test system: Staphylococcus aureus subsp. aureus; type: cell-based; conditions: Staphylococcus aureus subsp. aureus (multiple drug resistant); 48 h
Procedure: as §1, §2

[2] = test system: human lung fibroblasts (LL47); assay: Toxicity to mammalian cells, percent cell death (Nucleocounter); conditions: 4 μg/mL and 8 μg/mL, 6, 24, and 48 h
Procedure: (§3) Toxicity of the two compounds to mammalian cells was assayed in cell culture using mouse enteroendocrine cells (STC-1), human embryonic kidney cells (HEK 293; ATCC CRL-1573), and human lung fibroblasts (LL47; ATCC CCL-135). […] The human embryonic kidney cells and human lung fibroblasts were grown as per the American Type Culture Collection's recommendation, while the mouse enteroendocrine cells were grown as described by Vincent et al. (2001, Proc. Natl. Acad. Sci., 99:2392-2397). Media and sera were purchased from HyClone Laboratories (Logan, Utah). All cells were grown in 10% fetal bovine serum (FBS).
(§4) The number in the parenthesis represents the concentration of each compound in μg/mL. The percent cell death was benchmarked to 100% lysis with the positive control. The number of total cells and dead cells were counted after 6, 24, and 48 h using a Nucleocounter Automated cell counting system (New Brunswick; Edison, N.J.). Briefly, cells (STC, 200,000 cells/well; HEK 293, 200,000 cells/well; and LL47, 100,000 cells/well) were incubated in the appropriate medium for 24 h prior to addition of fresh media containing the antimicrobial compounds. After addition of the antimicrobial compound, the cell cultures were incubated at 37° C. with 5% CO2 for 6, 24, and 48 h. Cells were harvested by trypsinization using 0.25% trypsin-EDTA for 2 min. The trypsin was neutralized by addition of 200 μL of serum containing fresh medium. The cells were then harvested and transferred to 1.5 mL tubes, centrifuged (3-5 min at <100×g), and resuspended in 200 μL of fresh medium. For the total cell count, 100 μL of the suspension was added to lysis buffer (Reagent A100 in the starting kit (Cat No. M1293-0020, New Brunswick Scientific) for 30 s, which was stabilized using 100 μL of Reagent B. A positive control of completely lysed cells was used along with a negative control using sterile PBS (pH 7.4). For dead cell counts, 100 μL of cell lysate was counted without the use of lysis buffer or stabilizing buffer. All cell counts were obtained using the Nucleocounter automated cell counting system. Data were reported as the percent of cell death. The toxicity testing was done in replicate using three wells per test.

[3] = test system: mouse enteroendocrine cells (STC-1); assay: as above; conditions: 4 μg/mL and 8 μg/mL, 6, 24, and 48 h
Procedure: as §3, §4

[4] = test system: human embryonic kidney cells (HEK 293); assay: as above; conditions: 4 μg/mL and 8 μg/mL, 6, 24, and 48 h
Procedure: as §3, §4

Listeria innocua = assay: Inhibition rate (IR), propidium iodide uptake; type: cell-based
Procedure: (§5) The antimicrobial action for each compound was initially determined by the rate of uptake of propidium iodide (Fluoropure grade, Molecular Probes, Inc., Eugene, Oreg.) as previously described (Haughland, R. P., 2002, Handbook of fluorescent probes and research chemicals, 9th ed. Molecular Probes, Inc., Eugene, Oreg.). Briefly, all cultures were grown overnight in their respective optimal growth medium and temperature from freezer vials (Table 1). Each culture was sub-cultured twice, harvested in mid-log phase, washed with saline, and adjusted to an appropriate concentration by measuring the optical density at 600 nm. PI, with an excitation wavelength of 535 and an emission wavelength of 617, was added to the culture suspension at a final concentration of 10 μM. Each organism was treated with 50 μg/mL SP 25A and 60 μg/mL of the RL mixture in a final volume of 2.2 mL. The increase in fluorescence was measured with a Shimadzu RF 1501 spectrophotofluorometer at 15 s intervals for a maximum period of 120 min. Saline was added in place of SP 25A or RLs as a negative control. All inhibition experiments were done in replicate.
(§6) The rate of antimicrobial action was expressed as the inhibition rate (“IR”). Curve fitting was done using OriginPro version 7.0 (Natick, Mass.). IR=((Log RFU/(Time))−C)/Time (when d Log RFU/dT>0). Where RFU=relative fluorescent units; and C=Y intercept.

Aeromonas caviae = assay: Inhibition rate (IR), propidium iodide uptake; type: cell-based
Procedure: as §5, §6

Salmonella typhimurium = assay: Inhibition rate (IR), propidium iodide uptake; type: cell-based
Procedure: as §5, §6

Bacillus cereus = assay: Inhibition rate (IR), propidium iodide uptake; type: cell-based
Procedure: as §5, §6

Enterobacter aerogenes = assay: Inhibition rate (IR), propidium iodide uptake; type: cell-based
Procedure: as §5, §6

Streptococcus suis = assay: Inhibition rate (IR), propidium iodide uptake; type: cell-based
Procedure: as §5, §6

[5] = test system: Lactococcus lactis subsp. Lactis; assay: Inhibition rate (IR), propidium iodide uptake; type: cell-based
Procedure: as §5, §6

Micrococcus luteus = assay: Inhibition rate (IR), propidium iodide uptake; type: cell-based
Procedure: as §5, §6

Bacillus subtilis = assay: Inhibition rate (IR), propidium iodide uptake; type: cell-based
Procedure: as §5, §6

Clostridium sporogenes = assay: Inhibition rate (IR), propidium iodide uptake; type: cell-based
Procedure: as §5, §6

Brevibacterium linens = assay: Inhibition rate (IR), propidium iodide uptake; type: cell-based
Procedure: as §5, §6

Listeria monocytogenes = assay: Inhibition rate (IR), propidium iodide uptake; type: cell-based
Procedure: as §5, §6

## C/C=C(\NC(=O)C(C)NC(=O)C(C)NC(=O)C(CC(C)C)NC(=O)C(NC(=O)C(C)NC(=O)C(C)NC(=O)C(NC(=O)C1CCCN1C(=O)/C(=C/C)NC(=O)CC(O)CCCCCCC)C(C)C)C(C)C)C(=O)NC(C(=O)N/C(=C\C)C(=O)NC(C)C(=O)NC(C(=O)NC(C)C(=O)NC(C)C(=O)N/C(=C\C)C(=O)NC1C(=O)NC(CO)C(=O)NC(C)C(=O)NC(C(C)C)C(=O)NC(C)C(=O)NC(CCN)C(=O)NC(CCN)C(=O)NC(Cc2ccc(O)cc2)C(=O)OC1C)C(C)C)C(C)C (stereo not drawn) [SP 25A, syringopeptin 25A] ({Decanoyl(3ξ-OH)}-[Dhb]PVAAVLAA[Dhb]V[Dhb]AVAA[Dhb]TSAVA[Dab][Dab]Y; ester 18-C; configuration not given here)
Enterococcus faecalis
  MIC: 8 µg/mL
[1]
  MIC: 8 µg/mL
[2]
  cytotoxicity (percent cell death): No significant (p>0.05) cytotoxicity
[3]
  cytotoxicity (percent cell death): No significant (p>0.05) cytotoxicity
[4]
  cytotoxicity (percent cell death): No significant (p>0.05) cytotoxicity
Listeria innocua
  IR SP 25A (50 μg/mL): 0.005
Aeromonas caviae
  IR SP 25A (50 μg/mL): 0.000
Salmonella typhimurium
  IR SP 25A (50 μg/mL): 0.000
Bacillus cereus
  IR SP 25A (50 μg/mL): 0.004
Enterobacter aerogenes
  IR SP 25A (50 μg/mL): 0.000
Streptococcus suis
  IR SP 25A (50 μg/mL): 0.006
[5]
  IR SP 25A (50 μg/mL): 0.008
Micrococcus luteus
  IR SP 25A (50 μg/mL): 0.006
Bacillus subtilis
  IR SP 25A (50 μg/mL): 0.006
Clostridium sporogenes
  IR SP 25A (50 μg/mL): 0.008
Brevibacterium linens
  IR SP 25A (50 μg/mL): 0.009
Listeria monocytogenes; L. monocytogenes, each compound tested by itself
  inhibition rate relative to the inhibition rate for RLs: approximately one-sixth
Listeria monocytogenes; Listeria monocytogenes, 50 μg/mL
  IR SP 25A (50 μg/mL): 0.005
